From US10973906B2, “Therapeutic peptides and vaccines” (priority 2005, dated 2021)
Where a SMILES comes first, the peptide text is derived from it.

B1: MIP-1β: CCR5 selective chemokine ligand (protein)
chain: APMGSDPPTACCFSYTARKLPRNFVVDYYETSSLCSQPAVVFQTKRSKQVCADPSESWVQEYVYDLELN

Target: T1, CCR5 (Homo sapiens, UniProt P51681)
T1 construct: expressed in transfected cells; host or cells: ChfTh-CCR5 expressing cells (so in the source)
Assay: biochemical
Type: binding
Details: not given
Procedure: (§1) The antiviral assays are described in detail in the prior art (Ruff et al., 2001, Antiviral Res, 52, 63-75), which is hereby incorporated by reference, and will be here described only briefly.
(§2) We prepared a novel FITC-labeled tracer from soluble gp120 proteins (25 μg/ml) using a Fluorescent Protein labeling kit (Roche Diagnostics GmBh). Binding assays were performed in binding buffer containing 50mM HEPES (Gibco), pH=7.4, 5 mM MgCl2, 1 mM CaCl2.6H20 (Sigma), 5% BSA (Sigma) and 0.1% NaN3, final volume 100 μl. Binding was carried out for 1 h at 37° C. in 96-well filter plates (Millipore) using several CCR5 expressing lines, as indicated. Unbound labeled proteins were removed by rapid vacuum filtration and washing using a 96-well plate manifold. Filters were counted with a fluorescent plate reader (Hewlett Packard) at 495/530 nm. Non-specific binding was determined in the absence of sCD4 and was subtracted from the gp120-FITC binding in presence of 100 nM sCD4 (total binding).

T1 sequence (P51681 whole entry): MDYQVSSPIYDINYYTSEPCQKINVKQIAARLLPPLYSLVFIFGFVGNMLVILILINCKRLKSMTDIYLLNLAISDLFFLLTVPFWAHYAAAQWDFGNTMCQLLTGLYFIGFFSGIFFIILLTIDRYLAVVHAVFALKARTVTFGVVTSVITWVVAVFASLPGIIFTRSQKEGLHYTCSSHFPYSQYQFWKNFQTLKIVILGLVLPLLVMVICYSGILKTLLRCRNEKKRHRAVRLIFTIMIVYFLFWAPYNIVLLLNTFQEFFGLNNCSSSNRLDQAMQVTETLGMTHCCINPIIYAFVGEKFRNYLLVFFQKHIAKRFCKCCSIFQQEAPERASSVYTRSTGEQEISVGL

For N=C(N)NCCC[C@H](NC(=O)[C@H](Cc1ccc(O)cc1)NC(=O)[C@H](CCCNC(=N)N)NC(=O)[C@H](CC(N)=O)NC(=O)[C@@H](N)CC(N)=O)C(=O)O [NNRYR] (H-NNRYR-OH), which EC50 is on record?
Its EC50 is 0.2 nM.

N=C(N)NCCC[C@H](NC(=O)[C@H](Cc1ccc(O)cc1)NC(=O)[C@H](CCC(=O)O)NC(=O)[C@H](CO)NC(=O)[C@@H](N)CC(N)=O)C(=O)O [NSEYR] (H-NSEYR-OH) was tested. Which EC50 did it give?
The EC50 was 0.08 nM.

For NC(=O)C[C@H](NC(=O)[C@H](CO)NC(=O)[C@@H](N)CC(N)=O)C(=O)N[C@@H](Cc1ccc(O)cc1)C(=O)N[C@@H](CO)C(=O)O [NSNYS] (H-NSNYS-OH), which EC50 is on record?
Its EC50 is 0.5 nM.

With N=C(N)NCCC[C@H](NC(=O)[C@H](Cc1ccc(O)cc1)NC(=O)[C@H](CO)NC(=O)[C@H](CO)NC(=O)[C@@H](N)CC(N)=O)C(=O)O [NSSYR] (H-NSSYR-OH) as the molecule, how does the EC50 read?
The EC50 was 0.04 nM.

For C[C@@H](O)[C@H](NC(=O)[C@H](Cc1ccc(O)cc1)NC(=O)[C@H](CO)NC(=O)[C@H](CO)NC(=O)[C@@H](N)CC(N)=O)C(=O)O [NSSYT] (H-NSSYT-OH), which EC50 is on record?
The EC50 was 0.2 nM.

For C[C@@H](O)[C@H](NC(=O)[C@@H](N)CC(N)=O)C(=O)N[C@@H](CO)C(=O)N[C@@H](Cc1ccc(O)cc1)C(=O)N[C@@H](CCCNC(=N)N)C(=O)O [NTSYR] (H-NTSYR-OH), which EC50 is on record?
Its EC50 is 0.1 nM.

How did the EC50 turn out when N=C(N)NCCC[C@H](NC(=O)[C@H](Cc1ccc(O)cc1)NC(=O)[C@H](CCC(=O)O)NC(=O)[C@H](CO)NC(=O)[C@@H](N)CO)C(=O)O [SSEYR] (H-SSEYR-OH) was run?
Its EC50 is 0.3 nM.

With CC[C@H](C)[C@H](NC(=O)[C@@H](N)[C@@H](C)O)C(=O)N[C@@H](CO)C(=O)N[C@@H](Cc1ccc(O)cc1)C(=O)N[C@@H](CCCNC(=N)N)C(=O)O [TISYR] (H-TISYR-OH) as the molecule, how does the EC50 read?
Its EC50 is 0.4 nM.

For C[C@@H](O)[C@H](N)C(=O)N[C@@H](CO)C(=O)N[C@@H](CC(N)=O)C(=O)N[C@@H](Cc1ccc(O)cc1)C(=O)N[C@@H](CO)C(=O)O [TSNYS] (H-TSNYS-OH), which EC50 is on record?
Its EC50 is 0.2 nM.

With C[C@@H](O)[C@H](N)C(=O)N[C@H](C(=O)N[C@@H](CO)C(=O)N[C@@H](Cc1ccc(O)cc1)C(=O)N[C@@H](CCCNC(=N)N)C(=O)O)[C@@H](C)O [TTSYR] (H-TTSYR-OH) as the molecule, how does the EC50 read?
The EC50 was 0.1 nM.

With C[C@@H](O)[C@H](N)C(=O)N[C@H](C(=O)N[C@@H](CO)C(=O)N[C@@H](Cc1ccc(O)cc1)C(=O)N[C@H](C(=O)O)[C@@H](C)O)[C@@H](C)O [TTSYT] (H-TTSYT-OH) as the molecule, how does the EC50 read?
The EC50 was 0.05 nM.

N=C(N)NCCC[C@H](NC(=O)[C@H](Cc1ccc(O)cc1)NC(=O)[C@H](CO)NC(=O)[C@H](CO)NC(=O)[C@@H](N)Cc1ccc(O)cc1)C(=O)O [YSSYR] (H-YSSYR-OH) was tested. Which EC50 did it give?
Its EC50 is 0.6 nM.

Target: T1, CCR5
Assay: not given
Type: binding
Details: 10 nM
Procedure: as §1, §2
These studies are illustrated in FIG. 4. Total specific binding was defined as the difference in binding of FITIC-gp120 with or without added sCD4 (100 nM).
Data shown (panels A-C) are the mean and […] of three experiments, each with triplicate determinations. Analyses were performed by PRISM.

For B1, which “inhibition of binding of gp120 proteins Bal and CM235” value is on record?
The value was “inhibited”.

Same assay, conditions: gp120BaL/sCD4, Cf2Th/synR5 cells

For B1, which “inhibition of binding of gp120BaL/sCD4 to CCR5” value is on record?
Its value is “completely inhibited”.
